Assay results: ChEMBL document CHEMBL1157827, “The synthesis and biological evaluation of quinolyl-piperazinyl piperidines as potent serotonin 5-HT1A antagonists” (J Med Chem, 2010)
Calls of active or inactive are those of the source. The rule behind the calls is not given here.

What was measured:
Rattus norvegicus [1] = assay: Cognitive enhancing effect in Long-Evans rat assessed as increase in dwell time within trigger zone during acquisition training at 3 mg/kg, po by atlantis water maze test; format: functional, organism-based; design: dose 3 mg/kg
Rattus norvegicus [2] = assay: Cognitive enhancing effect in po dosed Long-Evans rat assessed as reversal of 48 hrs delay-induced cognitive deficit at 0.1 mg/kg, po measured after 1 hr by novel object recognition test in presence of 0.5 mg/kg acetylcholinesterase inhibitor donepazil; format: functional, organism-based
Rattus norvegicus [3] = assay: Antidepressant activity in Sprague-Dawley rat assessed as inhibition of olfactory bulbectomy-induced hyperlocomotor activity at 5.6 mg/kg, ip QD fro 7 days measured after 14 days post-surgery; format: functional, organism-based; design: dose 5.6 mg/kg
in vitro [4] = conditions: human, liver microsomes
Description: Half life in human liver microsomes at 1 uM after 20 mins

Rattus norvegicus [5] = assay: Cognitive enhancing effect in po dosed Long-Evans rat assessed as minimal effective dose for reversal of MK-801-induced memory deficit administered 30 mins prior to MK801 challenge measured after 1 hr by novel object recognition test; format: functional; conditions: read-out: MED
Rattus norvegicus [6] = assay: Induction of sexual dysfunction in Sprague-Dawley rat assessed as decrease in noncontact penile erection at 10 mg/kg, ip QD for 14 days measured after day 14; format: organism-based; design: dose 10 mg/kg, route intraperitoneal; scale not given: the % may be the effect or the level left; conditions: in vivo, 336 h
Rattus norvegicus [7] = assay: Increase in acetylcholine level in Sprague-Dawley rat dorsal hippocampus at 10 mg/kg, po after 40 to 200 mins microdialysis assay; format: functional, organism-based; design: dose 10 mg/kg
Rattus norvegicus [8] = assay: Inhibition of fluoxetine-induced decrease in noncontact penile erection in Sprague-Dawley rat at 10 mg/kg, po coadministered with fluoxetine; format: functional, organism-based; design: dose 10 mg/kg
Rattus norvegicus [9] = assay: Enhancement of fluoxetine-induced inhibition of olfactory bulbectomy-mediated hyperlocomotor activity in Sprague-Dawley rat at 10 mg/kg, po coadministered with fluoxetine QD for 7 days measured after 14 days post-surgery; format: functional, organism-based; design: dose 10 mg/kg
Mus musculus = assay: Cognitive enhancing effect in po dosed transgenic 2576 mouse overexpressing human APP K670N/M671L double mutant assessed as minimal effective dose for enhancement of contextual memory measured after 1 hr by contextual fear conditioning assay; format: functional; conditions: read-out: MED
Rattus norvegicus [10] = assay: Cognitive enhancing effect in Long-Evans rat assessed as effect on swim speed during acquisition training at 3 to 10 mg/kg, po by atlantis water maze test; format: functional, organism-based
Rattus norvegicus [11] = assay: AUC in Sprague-Dawley rat at 3 mg/kg, po administered as single dose by LC/MS/MS analysis; format: ADME, organism-based, Plasma; design: dose 3 mg/kg, route oral; conditions: in vivo
Rattus norvegicus [12] = assay: Effect of noncontact penile erection in Sprague-Dawley rat at 10 mg/kg, po; format: functional, organism-based; design: dose 10 mg/kg
[13] = target: T1, 5-hydroxytryptamine receptor 1A (Homo sapiens, UniProt P08908)
T1 sequence (P08908 whole entry): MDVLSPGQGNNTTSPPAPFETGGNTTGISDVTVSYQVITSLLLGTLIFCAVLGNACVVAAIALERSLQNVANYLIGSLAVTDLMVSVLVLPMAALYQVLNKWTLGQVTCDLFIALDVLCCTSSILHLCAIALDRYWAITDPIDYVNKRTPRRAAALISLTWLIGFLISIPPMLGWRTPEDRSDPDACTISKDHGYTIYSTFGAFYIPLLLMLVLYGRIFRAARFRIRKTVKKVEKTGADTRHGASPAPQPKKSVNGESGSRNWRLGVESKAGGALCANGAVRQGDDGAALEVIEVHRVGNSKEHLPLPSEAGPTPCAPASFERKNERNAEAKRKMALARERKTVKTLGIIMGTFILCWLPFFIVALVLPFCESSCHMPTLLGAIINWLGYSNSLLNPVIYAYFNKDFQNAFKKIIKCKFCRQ

Rattus norvegicus [14] = assay: Inhibition of 8-OH-DPAT-induced decrease in extracellular serotonin level Sprague-Dawley rat cortex at 10 mg/kg, po administered 30 mins before 8-OH-DPAT challenge; format: functional, organism-based; design: dose 10 mg/kg
Rattus norvegicus [15] = assay: Cognitive enhancing effect in Long-Evans rat assessed as decrease in mean escape latency at 3 to 10 mg/kg, po by atlantis water maze test; format: functional, organism-based
Rattus norvegicus [16] = assay: In vivo receptor occupancy of 5HT1A receptor Long-Evans rat […] hippocampus at 0.1 to 10 mg/kg, po by [3H]WAY100635 displacement assay; format: functional; conditions: dose mg/kg 0.1-10
Rattus norvegicus [17] = assay: Inhibition of fluoxetine-induced decrease in noncontact penile erection in Sprague-Dawley rat at 10 mg/kg, po coadministered with fluoxetine QD for 14 days measured after day 14; format: functional, organism-based; design: dose 10 mg/kg
Rattus norvegicus [18] = assay: Effect on obsessive compulsive behavior in Sprague-Dawley rat assessed as inhibition of polydipsia stimulated by food intake of a schedule of every 2 minutes for 2 hrs at 10 mg/kg, po after 30 mins; format: functional, organism-based; design: dose 10 mg/kg
Rattus norvegicus [19] = assay: Effect of noncontact penile erection in Sprague-Dawley rat at 10 mg/kg, po QD for 14 days measured after day 14; format: functional, organism-based; design: dose 10 mg/kg
Rattus norvegicus [20] = assay: Oral bioavailability in Sprague-Dawley rat at 3 mg/kg administered as single dose by LC/MS/MS analysis; format: ADME, organism-based; conditions: in vivo
Rattus norvegicus [21] = assay: Enhancement of fluoxetine-induced inhibition of polydipsia stimulated by food intake of a schedule of every 2 minutes for 2 hrs in Sprague-Dawley rat assessed as minimal effective dose administered 30 mins before fluoxetine challenge measured after 30 mins; format: functional; conditions: read-out: MED
Rattus norvegicus [22] = assay: Cognitive enhancing effect in Long-Evans rat assessed as increase in dwell time within trigger zone during acquisition training at 10 mg/kg, po by atlantis water maze test; format: functional, organism-based; design: dose 10 mg/kg
Rattus norvegicus [23] = assay: In vivo receptor occupancy of 5HT1A receptor Long-Evans rat frontal cortex at 0.1 to 10 mg/kg, po by [3H]WAY100635 displacement assay; format: functional; conditions: dose mg/kg 0.1-10
[24] = Cmax in Sprague-Dawley rat at 3 mg/kg, po administered as single dose by LC/MS/MS analysis; format: ADME, organism-based; design: dose 3 mg/kg, route oral; conditions: in vivo
[25] = target: T1, 5-hydroxytryptamine receptor 1A; conditions: cho
Description: Displacement of [3H]8-OH-DPAT from human 5HT1A receptor expressed in CHO cells

[26] = Half life in Sprague-Dawley rat at 3 mg/kg, po administered as single dose by LC/MS/MS analysis; format: ADME, organism-based; design: dose 3 mg/kg, route oral; conditions: in vivo
Rattus norvegicus [27] = assay: Effect on serotonin release in Sprague-Dawley rat cortex at 10 mg/kg, po after 40 mins microdialysis assay; format: functional, organism-based; design: dose 10 mg/kg
Rattus norvegicus [28] = assay: Cognitive enhancing effect in po dosed Long-Evans rat assessed as minimal effective dose for reversal of 48 hrs delay-induced cognitive deficit measured after 1 hr by novel object recognition test; format: functional; conditions: read-out: MED
Rattus norvegicus [29] = assay: Effect on obsessive compulsive behavior in Sprague-Dawley rat assessed as inhibition of polydipsia stimulated by food intake of a schedule of every 2 minutes for 2 hrs at 5.6 mg/kg, ip after 30 mins; format: functional, organism-based; design: dose 5.6 mg/kg
[30] = Ratio of drug level in brain to plasma in Sprague-Dawley rat at 3 mg/kg, po administered as single dose; format: ADME, organism-based; design: dose 3 mg/kg, route oral; conditions: read-out: BPR
Rattus norvegicus [31] = assay: Effect on obsessive compulsive behavior in po dosed Sprague-Dawley rat assessed as enhancement of fluoxetine-induced inhibition of polydipsia stimulated by food intake of a schedule of every 2 minutes for 2 hrs administered 30 mins before fluoxetine challenge measured after 30 mins; format: functional, organism-based
[32] = Tmax in Sprague-Dawley rat at 3 mg/kg, po administered as single dose by LC/MS/MS analysis; format: ADME, organism-based; design: dose 3 mg/kg, route oral; conditions: in vivo
in vitro [33] = conditions: rat, liver microsomes
Description: Half life in rat liver microsomes at 1 uM after 20 mins

Rattus norvegicus [34] = assay: Increase in fluoxetine-induced increase in serotonin level in Sprague-Dawley rat frontal cortex at 10 mg/kg, po administered 30 mins before fluoxetine challenge measured after 20 mins by microdialysis assay relative to basal level; format: functional
Rattus norvegicus [35] = assay: Cognitive enhancing effect in po dosed Long-Evans rat assessed as minimal effective dose for reversal of scopolamine-induced memory deficit administered 30 mins prior to MK801 challenge measured after 1 hr by novel object recognition test; format: functional; conditions: read-out: MED
[36] = Volume of distribution at steady state in Sprague-Dawley rat at 1 mg/kg, iv administered as single dose by LC/MS/MS analysis; format: ADME, organism-based; design: dose 1 mg/kg, route intravenous; conditions: in vivo, read-out: Vdss

Structure (SMILES): COc1cc(N2CCN(C3CCN(c4ccc(F)c5cccnc45)CC3)CC2)c2ncccc2c1
- Activity (Rattus norvegicus [1]): inactive
- Activity (Rattus norvegicus [2]): Active
- Activity (Rattus norvegicus [3]): inactive
- half-life at 20 min, 1 µM (in vitro [4]): 6 min
- minimal effective dose (Rattus norvegicus [5]): 1 mg/kg
- Activity (Rattus norvegicus [6]): 54%
- Activity (Rattus norvegicus [7]): Active
- Activity (Rattus norvegicus [8]): Active
- Activity (Rattus norvegicus [9]): Active
- minimal effective dose (Mus musculus): 0.3 mg/kg
- Activity (Rattus norvegicus [10]): inactive
- AUC (Rattus norvegicus [11]): 0.472 µg·h/mL
- Activity (Rattus norvegicus [12]): inactive
- IC50 [13]: 2.7 nM
- Activity (Rattus norvegicus [14]): Active
- Activity (Rattus norvegicus [15]): Active
- Activity (Rattus norvegicus [16]): 20%
- Activity (Rattus norvegicus [17]): Active
- Activity (Rattus norvegicus [18]): inactive
- Activity (Rattus norvegicus [19]): inactive
- F (Rattus norvegicus [20]): 33%
- minimal effective dose (Rattus norvegicus [21]): 3 mg/kg
- Activity (Rattus norvegicus [22]): Active
- Activity (Rattus norvegicus [23]): 20%
- Cmax [24]: 0.247 µg/mL
- Ki [25]: 0.4 nM
- half-life [26]: 66 min
- Activity (Rattus norvegicus [27]): inactive
- minimal effective dose (Rattus norvegicus [28]): 0.3 mg/kg
- Activity (Rattus norvegicus [29]): inactive
- Kp [30]: 1.3
- Activity (Rattus norvegicus [31]): Dose-dependent effect
- Tmax [32]: 48 min
- half-life at 20 min, 1 µM (in vitro [33]): 2 min
- Activity (Rattus norvegicus [34]): 120%
- minimal effective dose (Rattus norvegicus [35]): 0.3 mg/kg
- Vd [36]: 2.6 L/kg
